This is an account of results in ChEMBL document CHEMBL1944611, “Genistein binding mode to doubly nicked dumbbell DNA. Dynamic and diffusion ordered NMR study” (J Med Chem, 2011).

SMILES strings stand for the structures.

Type in all cases: nucleic-acid assay
Assay [1] concerns Nucleic Acid. The assay is described as follows: Binding affinity to Doubly nicked dumbbell DNA 5'-TCGAACGC/iSp18/GCTG/3Phos/-3' at 1.4 mM compound concentration and pH 8.4.
Assay [2] deals with Nucleic Acid. The assay is described as follows: Binding affinity to Doubly nicked dumbbell DNA 5'-TCGAACGC/iSp18/GCTG/3Phos/-3' at 1 mM DNA concentration and pH 8.4.
Assay [3] has as its system Nucleic Acid. The assay is described as follows: Binding affinity to Doubly nicked dumbbell DNA 5'-TCGAACGC/iSp18/GCTG/3Phos/-3' at 1 mM DNA concentration and pH 9.2.
The subject of assay [4] is Nucleic Acid. The assay is described as follows: Binding affinity to Doubly nicked dumbbell DNA 5'-TCGAACGC/iSp18/GCTG/3Phos/-3' at 1 mM DNA concentration and pH 8.6.
The test system of assay [5] is Nucleic Acid. The assay is described as follows: Binding affinity to Doubly nicked dumbbell DNA 5'-TCGAACGC/iSp18/GCTG/3Phos/-3' at 1.4 mM compound concentration and pH 9.2.
Assay [6] has as its system Nucleic Acid. The assay is described as follows: Binding affinity to Doubly nicked dumbbell DNA 5'-TCGAACGC/iSp18/GCTG/3Phos/-3' at 1 mM compound concentration and pH 8.6.
Assay [7] has as its system Nucleic Acid. The assay is described as follows: Binding affinity to Doubly nicked dumbbell DNA 5'-TCGAACGC/iSp18/GCTG/3Phos/-3' at 1 mM compound concentration and pH 6.
Assay [8] has as its system Nucleic Acid. The assay is described as follows: Binding affinity to Doubly nicked dumbbell DNA 5'-TCGAACGC/iSp18/GCTG/3Phos/-3' at 1.9 mM DNA concentration and pH 6.

On to `O=c1c(-c2ccc(O)cc2)coc2cc(O)cc(O)c12`, for which the Ka in assay [1] came to 0.23 mM⁻¹; in assay [2], 0.57 mM⁻¹; in assay [3], 0.31 mM⁻¹; in assay [4] it was 0.77 mM⁻¹; in assay [5], 0.17 mM⁻¹; in assay [6] it was 0.38 mM⁻¹.
As to `CN(C)Cc1c(O)c(CN(C)C)c2occ(-c3ccc(O)cc3)c(=O)c2c1O`, the values for the Ka in assay [7] and in assay [8] were 0.5 mM⁻¹ and 0.71 mM⁻¹, respectively.
